Assay results as given in PMC6934184, “Selective DNA-PKcs inhibition extends the therapeutic index of localized radiotherapy and chemotherapy” (The Journal of Clinical Investigation, 2019).

Biological target: T1, RIPK2 (Homo sapiens, UniProt O43353)
T1 construct: purchased Thermo Fisher Scientific (Life Technologies) SelectScreen
Experiment: SelectScreen LanthaScreen
Format: binding
Conditions: read-out: % displacement
Method: The in vitro kinase selectivity of NU5455 was determined using the SelectScreen Broad Assay Panel (Thermo Fisher Scientific) involving activity and binding assays (Supplemental Table 1). […] Class IA PI3Ks were measured using the p85α subunit.
Kinase [ATP] % Assay Kinase [ATP] % Assay Kinase [ATP] % Assay Kinase [ATP] % Assay […]
MAPK11 (p38 beta) Km app 9.5 Z RIPK2 n/a 3.1 L AKT2 (PKB beta) Km app 0.0 Z PRKCE (PKC epsilon) Km app -4.9 Z […]
SGK (SGK1) Km app 8.5 Z MAP4K2 (GCK) Km app 2.7 Z TLK2 n/a -0.3 L STK38 (NDR) n/a -5.9 L
MERTK (cMER) Km app 8.3 Z CDK2/cyclin A Km app 2.7 Z TGFBR1 (ALK5) n/a -0.4 L MATK (HYL) Km app -6.3 Z
FYN Km app 8.3 Z EPHA1 Km app 2.7 Z CLK3 Km app -0.5 Z ABL1 E255K Km app -6.6 Z
TEC n/a 8.1 L CDK2/cyclin E1 n/a 2.7 L MAP3K14 (NIK) n/a -0.5 L STK17A (DRAK1) n/a -6.6 L
KIT V654A n/a 8.1 L TESK2 n/a 2.7 L AKT3 (PKB gamma) Km app -0.5 Z JAK2 JH1 JH2 Km app -6.7 Z
ROS1 Km app 8.0 Z SPHK1 Km app 2.7 A MAP3K9 (MLK1) Km app -0.5 Z PRKACB (PRKAC beta) n/a -6.8 L
FGFR3 K650E Km app 7.9 Z AMPK A2/B1/G1 Km app 2.6 Z IKBKB (IKK beta) Km app -0.6 Z PDGFRA (PDGFR alpha) Km app -6.8 Z
RAF1 (cRAF) Y340D Y341D 100 7.9 Z DYRK3 Km app 2.6 Z CAMK2A (CaMKII alpha) Km app -0.6 Z NEK9 Km app -7.2 Z
PI4KA (PI4K alpha) 10 7.8 A CSNK1D (CK1 delta) Km app 2.6 Z PRKCB1 (PKC beta I) Km app -0.7 Z PDK1 Km app -7.3 Z […]

T1 sequence (O43353 whole entry): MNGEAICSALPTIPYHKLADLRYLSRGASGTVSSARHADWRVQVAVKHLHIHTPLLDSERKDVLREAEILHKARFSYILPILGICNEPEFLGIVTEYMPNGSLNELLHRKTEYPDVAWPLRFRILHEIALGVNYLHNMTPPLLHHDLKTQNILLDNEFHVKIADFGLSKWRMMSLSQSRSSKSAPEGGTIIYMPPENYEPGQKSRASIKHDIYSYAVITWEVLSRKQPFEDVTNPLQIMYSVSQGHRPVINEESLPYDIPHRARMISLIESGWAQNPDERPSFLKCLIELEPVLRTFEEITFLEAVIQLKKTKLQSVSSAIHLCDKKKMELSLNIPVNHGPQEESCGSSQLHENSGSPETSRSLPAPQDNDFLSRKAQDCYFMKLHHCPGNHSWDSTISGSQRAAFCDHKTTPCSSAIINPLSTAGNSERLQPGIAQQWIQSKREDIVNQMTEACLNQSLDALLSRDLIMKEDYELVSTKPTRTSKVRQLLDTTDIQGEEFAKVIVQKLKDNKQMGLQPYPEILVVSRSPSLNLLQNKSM

Work on `CN(C(=O)CN1CCOCC1)c1ccc2sc3c(-c4cccc5c(=O)cc(N6CC7CCC(C6)O7)oc45)cccc3c2c1` [NU5455] yielded an inhibition at 1 µM of 3.1%.
